Source: paper PMC11091976, “Shorter Peptide Nucleic Acid Probes Improve Affibody-Mediated Peptide Nucleic Acid-Based Pretargeting” (ACS Pharmacology & Translational Science, 2024)

Legend:
Z-HP9 = experiment: Multicycle kinetic SPR, immobilized Z-HP9; assay type: binding; conditions: MCK SPR
Method: We utilized SPR on a Biacore T200 instrument (Cytiva) to examine how secondary PNA probes (6-mer HP19, 7-mer HP21, 8-mer HP20, and 9-mer HP16) bind to primary agents. These experiments were conducted using dextran-coated CM5 sensor chips and PBS-T buffer at pH 7.4. The ligands were immobilized through a standard EDC/NHS coupling method, and the chip surface was sealed with ethanolamine. A reference surface with no primary agent was also included.
Association and dissociation times were set at 700 and 1800 s, respectively, with regeneration accomplished through a 30 s injection of 10 mM glycine-HCl, pH 1.5.
All SPR experiments were performed in duplicate, and data analysis was conducted using the Biacore T200 Evaluation software version 2.0 with a 1:1 binding model.

SKOV-3 xenografts = experiment: Biodistribution with preinjection of primary agent (pretargeting); parameters: species or system BALB/C nu/nu mice; conditions: mouse, in vivo
Excerpt: Biodistribution measurements of all radiolabeled PNA-based probes indicated rapid clearance from the blood as well as from other organs and tissues, which is a crucial requirement for the success of in vivo pretargeting strategies.
Animal studies were planned in agreement with EU Directive 2010/63/EU for animal experiments and Swedish national legislation concerning the protection of laboratory animals and were approved by the Ethics Committee for Animal Research in Uppsala, Sweden (animal permission C4/16). HER2-positive xenografts were implanted by subcutaneous injection of 10^7 SKOV-3 cells in the right hind legs of female BALB/C nu/nu mice. Three weeks after implantation, mice were randomized into 8 groups, with 4 mice in each group. At the time of the experiment, the average animal weight was 20 ± 1 g. The average tumor weight was 0.26 ± 0.14 g. The mice were euthanized at predetermined time points by overdose of Ketamine/Xylazine anesthesia, followed by heart puncture. The organs of interest such as blood, lung, liver, spleen, kidney, muscle, bone, and tumor were collected, weighed, and subsequently their radioactivity was measured. Organs and tumor uptake were calculated as the percentage of the injected dose per gram of the sample (%ID/g). […]

[1] = test system: HER2 xenograft mouse model; conditions: in vivo; cited from earlier work
Method: In our recent study,[29] we introduced a second-generation of pretargeting probes featuring a common 15-mer affibody-PNA conjugate, ZHER2:343-HP15, and three complementary secondary probes of varying lengths: a 9-mer (HP16), a 12-mer (HP17), and a 15-mer (HP18). […] At 4 h postinjection, there were no significant differences in the tumor-to-kidney ratios among the three different pretargeting groups.

[2] = assay type: physicochemical
Method: Table 4 summarizes the radiochemical yield (RCY), purity, and stability test results for all ^177Lu-labeled probes in this study. […] Such radiolabeling yield necessitated purification to achieve the requisite radiochemical purity of over 95%. Purification was conducted using a NAP-5 column, eluted with 1% BSA in PBS, resulting in radiochemical purities of 99 ± 1.7% for [^177Lu]Lu-Z-HP9 and 98.5 ± 2.2% for [^177Lu]Lu-Z-HP12, respectively. […] Thus, it was essential that the label was stable, and the compound was pure. […] The RCY for the secondary probes exceeded 97%, and consequently, further purification was deemed unnecessary for in vitro and in vivo studies. Importantly, all probes labeled with ^177Lu remained stable in the presence of an excess amount of EDTA and in PBS as control after incubation at 37 °C for 1 h.
Radiolabeling of primary and secondary probes with ^177Lu was performed using a previously described method.[29] Briefly, 100 μL of 0.2 M of NH4Ac, pH 5.5 was added to 30 μg of the probe (100 μL of 0.3 mg/mL stock in NH4Ac) to provide right pH for the labeling. The mixture was heated at 95 °C for 10 min, followed by sonication for 5 min, and reheating at 95 °C for 10 min to ensure complete dissolving. […] RCY was then analyzed using iTLC developed with 0.2 M citric acid, pH 2.0. […] Samples were run in triplicates and analyzed by radio-iTLC.

Which results are given for “DOTA-AEEA-SS-aacaccagg-EEY-NH2 [HP16, 9-mer secondary PNA probe with DOTA]”?
ka (Z-HP9; primary probe HP9 (Z-HP9 immobilized), 25 °C, 1.4-70 nM, 1:1 model, duplicates): 1.8 × 10^5 M^–1 s^–1; Kd (Z-HP9; primary probe HP9, 25 °C): 270 pM; kd (Z-HP9; primary probe HP9, 25 °C): 4.8 × 10^–5 s^–1; Kd (Z-HP9; primary probe HP9, 37 °C): 390 pM; ka (Z-HP9; primary probe HP9, 37 °C): 2.9 × 10^5 M^–1 s^–1; kd (Z-HP9; primary probe HP9, 37 °C): 1.1 × 10^–4 s^–1

Which results are given for `NC(=O)[C@H](Cc1ccc(O)cc1)NC(=O)[C@H](CCC(=O)O)NC(=O)[C@H](CCC(=O)O)NC(=O)CN(CCNC(=O)CN(CCNC(=O)CN(CCNC(=O)CN(CCNC(=O)CN(CCNC(=O)CN(CCNC(=O)CN(CCNC(=O)CN(CCNC(=O)CN(CCNC(=O)[C@H](CO)NC(=O)[C@H](CO)NC(=O)COCCOCCNC(=O)CN1CCN(CC(=O)O)CCN(CC(=O)O)CCN(CC(=O)O)CC1)C(=O)Cn1cnc2c(N)ncnc21)C(=O)Cn1cnc2c(N)ncnc21)C(=O)Cn1ccc(N)nc1=O)C(=O)Cn1cnc2c(N)ncnc21)C(=O)Cn1ccc(N)nc1=O)C(=O)Cn1ccc(N)nc1=O)C(=O)Cn1cnc2c(N)ncnc21)C(=O)Cn1cnc2c(=O)[nH]c(N)nc21)C(=O)Cn1cnc2c(=O)[nH]c(N)nc21` [[^177Lu]Lu-HP16, metal not drawn]?
tumor-associated activity (SKOV-3 xenografts): 1.91 ± 0.831 %ID/g; kidney uptake [1]: 6 ± 1 % ID/g

For `NC(=O)[C@H](Cc1ccc(O)cc1)NC(=O)[C@H](CCC(=O)O)NC(=O)[C@H](CCC(=O)O)NC(=O)CN(CCNC(=O)CN(CCNC(=O)CN(CCNC(=O)CN(CCNC(=O)CN(CCNC(=O)CN(CCNC(=O)CN(CCNC(=O)CN(CCNC(=O)[C@H](CO)NC(=O)[C@H](CO)NC(=O)COCCOCCNC(=O)CN1CCN(CC(=O)O)CCN(CC(=O)O)CCN(CC(=O)O)CC1)C(=O)Cn1cnc2c(N)ncnc21)C(=O)Cn1ccc(N)nc1=O)C(=O)Cn1cnc2c(N)ncnc21)C(=O)Cn1ccc(N)nc1=O)C(=O)Cn1ccc(N)nc1=O)C(=O)Cn1cnc2c(N)ncnc21)C(=O)Cn1cnc2c(=O)[nH]c(N)nc21)C(=O)Cn1cnc2c(=O)[nH]c(N)nc21` [[^177Lu]Lu-HP20, metal not drawn], which “stability (×500 EDTA), 37 °C, 1 h” value [2] is on record?
The value was 99.5 ± 0.7.

And the “stability in PBS, 37 °C, 1 h” value [2]?
Its value is 100 ± 0.
